The record followed here is patent publication US11155557B2, “Pyrazolopyrimidine compounds and methods of use thereof” (Genentech, Inc., priority 2016, dated 2021).

Like-named read-outs stand apart in the source and are kept apart here.

Assay [1] relates to JAK1-dependent STAT6 phosphorylation in BEAS-2B human bronchial epithelial cells. The experiment in a line: JAK1 pathway assay: IL-13 stimulated STAT6 phosphorylation in BEAS-2B cells. Type of assay: cell-based. To be noted: BEAS-2B cells, IL-13 stimulation, read-out: IL-13 p-STAT6 BEAS-2B IC50. The method in brief: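 BEAS-2B bronchial epithelial cells plated one day before, run in complete growth medium. Phospho-STAT6 in lysates measured by MesoScale Discovery; EC50 reported.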

Assay [2] has as its target isolated recombinant JAK2 kinase domain (Homo sapiens (Human), UniProt O60674). Briefly: JAK2 enzyme assay (Caliper LabChip, Ki). The note with it: read-out: JAK2 Ki.
Assay [3] addresses isolated recombinant JAK1 kinase domain (Homo sapiens (Human), UniProt P23458). Briefly: JAK1 enzyme assay (Caliper LabChip, Ki). It counts as biochemical. The procedure: The activity of the isolated recombinant JAK1 and JAK2 kinase domain was measured by monitoring phosphorylation of a peptide derived from JAK3 ([…] fluorescently labeled on the N-terminus with 5-carboxyfluorescein) using the Caliper LabChip R technology (Caliper Life Sciences, Hopkinton, Mass.).

isolated recombinant JAK1 kinase domain, sequence (P23458 875-1153): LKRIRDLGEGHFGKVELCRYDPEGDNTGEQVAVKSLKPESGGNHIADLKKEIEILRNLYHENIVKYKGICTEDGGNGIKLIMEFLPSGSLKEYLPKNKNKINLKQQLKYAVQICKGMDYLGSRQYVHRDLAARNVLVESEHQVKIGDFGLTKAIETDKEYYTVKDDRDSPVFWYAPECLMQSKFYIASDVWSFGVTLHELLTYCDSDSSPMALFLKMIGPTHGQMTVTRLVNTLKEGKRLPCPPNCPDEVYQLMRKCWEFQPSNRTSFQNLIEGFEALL
isolated recombinant JAK2 kinase domain, sequence (O60674 849-1124): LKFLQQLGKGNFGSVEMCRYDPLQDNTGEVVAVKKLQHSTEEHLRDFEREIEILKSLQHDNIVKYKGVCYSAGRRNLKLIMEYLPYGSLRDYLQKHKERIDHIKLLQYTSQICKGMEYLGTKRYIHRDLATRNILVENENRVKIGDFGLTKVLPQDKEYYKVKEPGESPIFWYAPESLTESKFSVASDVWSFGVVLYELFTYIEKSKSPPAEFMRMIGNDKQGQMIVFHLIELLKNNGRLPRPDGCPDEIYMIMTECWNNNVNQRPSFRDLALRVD

Regarding `COc1cc2c(cc1-c1n[nH]cc1NC(=O)c1cnn3cccnc13)CCC2` [Example 27, N-[3-(6-methoxyindan-5-yl)-1H-pyrazol-4-yl]pyrazolo[1,5-a]pyrimidine-3-carboxamide], the IC50 in assay [1] (Homo sapiens, BEAS-2B) turned out to be 6 nM. Also, the Ki in assay [2] turned out to be 0.34 nM; in assay [3], 0.89 nM.

Turning to `COc1cc2cnccc2cc1-c1n[nH]cc1NC(=O)c1cnn2cccnc12` [Example 29, N-[3-(7-methoxy-6-isoquinolyl)-1H-pyrazol-4-yl]pyrazolo[1,5-a]pyrimidine-3-carboxamide], the IC50 in assay [1] (Homo sapiens, BEAS-2B) came to 85 nM. The Ki amounted to 0.49 nM in assay [2] and 0.84 nM in assay [3].

Take `COc1cc2[nH]ncc2cc1-c1n[nH]cc1NC(=O)c1cnn2cccnc12` [Example 30, N-[3-(6-methoxy-1H-indazol-5-yl)-1H-pyrazol-4-yl]pyrazolo[1,5-a]pyrimidine-3-carboxamide]: in assay [1], the concentration for half-maximal inhibition (IC50) stood at 369 nM. Moreover, the Ki in assay [2] is 0.2 nM; in assay [3], 0.3 nM.

For `COc1cc2[nH]cnc2cc1-c1n[nH]cc1NC(=O)c1cnn2cccnc12` [Example 31, N-[3-(6-methoxy-1H-benzimidazol-5-yl)-1H-pyrazol-4-yl]pyrazolo[1,5-a]pyrimidine-3-carboxamide], the half-maximal inhibitory concentration (IC50) in assay [1] (Homo sapiens, BEAS-2B) came out at 6910 nM. The inhibition constant (Ki) came out at 0.9 nM in assay [2] and 2.09 nM in assay [3].

In the case of `COc1cc2cnsc2cc1-c1n[nH]cc1NC(=O)c1cnn2cccnc12` [Example 32, N-[3-(5-methoxy-1,2-benzothiazol-6-yl)-1H-pyrazol-4-yl]pyrazolo[1,5-a]pyrimidine-3-carboxamide], the concentration for half-maximal inhibition (IC50) in assay [1] (Homo sapiens, BEAS-2B) came to 2 nM. Moreover, the figures for the inhibition constant Ki in assay [2] and in assay [3] were 0.11 nM and 0.16 nM, respectively.

In the case of `COc1cc2sncc2cc1-c1n[nH]cc1NC(=O)c1cnn2cccnc12` [Example 33, N-[3-(6-methoxy-1,2-benzothiazol-5-yl)-1H-pyrazol-4-yl]pyrazolo[1,5-a]pyrimidine-3-carboxamide], the 50% inhibitory concentration (IC50) in assay [1] (Homo sapiens, BEAS-2B) amounted to 21 nM. Moreover, the Ki in assay [2] stood at 0.4 nM; in assay [3], 0.91 nM.

With `COc1cc2sccc2cc1-c1[nH]ncc1NC(=O)c1cnn2cccnc12` [Example 34, N-[5-(6-methoxybenzothiophen-5-yl)-1H-pyrazol-4-yl]pyrazolo[1,5-a]pyrimidine-3-carboxamide], the IC50 in assay [1] (Homo sapiens, BEAS-2B) worked out at 10 nM. Besides, the inhibition constant Ki worked out at 0.19 nM in assay [2] and 0.6 nM in assay [3].

`COc1cc2ccsc2cc1-c1n[nH]cc1NC(=O)c1cnn2cccnc12` [Example 35, N-[3-(5-methoxybenzothiophen-6-yl)-1H-pyrazol-4-yl]pyrazolo[1,5-a]pyrimidine-3-carboxamide]: in assay [1] (Homo sapiens, BEAS-2B), the half-inhibitory concentration (IC50) is 3 nM. Besides, the Ki in assay [2] is 0.11 nM; in assay [3], 0.28 nM.

Consider `CCOC(=O)c1cc2cc(-c3n[nH]cc3NC(=O)c3cnn4cccnc34)c(OC)cc2s1` [Example 36, ethyl 6-methoxy-5-[4-(pyrazolo[1,5-a]pyrimidine-3-carbonylamino)-1H-pyrazol-3-yl]benzothiophene-2-carboxylate], for which the half-inhibitory concentration (IC50) in assay [1] (Homo sapiens, BEAS-2B) was 32 nM. The Ki in assay [2] was determined as 0.49 nM; in assay [3] it was 0.65 nM.

Consider `CC1CNc2cc(OC(F)F)c(-c3n[nH]cc3NC(=O)c3cnn4cccnc34)cc2S1` (stereo not drawn) [Example 37, N-[3-[6-(difluoromethoxy)-2-methyl-3,4-dihydro-2H-1,4-benzothiazin-7-yl]-1H-pyrazol-4-yl]pyrazolo[1,5-a]pyrimidine-3-carboxamide], for which the IC50 in assay [1] (Homo sapiens, BEAS-2B) was determined as 5 nM. Moreover, the Ki in assay [2] is 0.05 nM; in assay [3], 0.07 nM.

Take `CC1Sc2cc(-c3n[nH]cc3NC(=O)c3cnn4cccnc34)c(OC(F)F)cc2NC1=O` (stereo not drawn) [Example 39, N-[3-[6-(difluoromethoxy)-2-methyl-3-oxo-4H-1,4-benzothiazin-7-yl]-1H-pyrazol-4-yl]pyrazolo[1,5-a]pyrimidine-3-carboxamide]: in assay [1] (Homo sapiens, BEAS-2B), the IC50 is 71 nM. The inhibition constant Ki in assay [2] is 0.05 nM; in assay [3], 0.06 nM.

Regarding `O=C1COc2cc(-c3n[nH]cc3NC(=O)c3cnn4cccnc34)c(OC(F)F)cc2N1` [Example 40, N-[3-[6-(difluoromethoxy)-3-oxo-4H-1,4-benzoxazin-7-yl]-1H-pyrazol-4-yl]pyrazolo[1,5-a]pyrimidine-3-carboxamide], the IC50 in assay [1] (Homo sapiens, BEAS-2B) was determined as 67 nM. In addition, the inhibition constant (Ki) in assay [2] was determined as 0.06 nM; in assay [3], 0.09 nM.

With `C[C@H]1COc2cc(-c3n[nH]cc3NC(=O)c3cnn4cccnc34)c(OC(F)F)cc2N1` [Example 42, N-[3-[(3S)-6-(difluoromethoxy)-3-methyl-3,4-dihydro-2H-1,4-benzoxazin-7-yl]-1H-pyrazol-4-yl]pyrazolo[1,5-a]pyrimidine-3-carboxamide], in assay [1] (Homo sapiens, BEAS-2B), the IC50 was 34 nM. Also, the inhibition constant (Ki) was 0.25 nM in assay [2] and 0.44 nM in assay [3].

On to `C[C@@H]1COc2cc(-c3n[nH]cc3NC(=O)c3cnn4cccnc34)c(OC(F)F)cc2N1` [Example 43, N-[3-[(3R)-6-(difluoromethoxy)-3-methyl-3,4-dihydro-2H-1,4-benzoxazin-7-yl]-1H-pyrazol-4-yl]pyrazolo[1,5-a]pyrimidine-3-carboxamide], for which the half-inhibitory concentration (IC50) in assay [1] (Homo sapiens, BEAS-2B) came to 12 nM. Also, the Ki amounted to 0.17 nM in assay [2] and 0.25 nM in assay [3].

On to `O=C(Nc1cn(CC(=O)N2CCC(CN3CCOCC3)CC2)nc1-c1cc2c(cc1OC(F)F)NCCO2)c1cnn2cccnc12` [Example 44, N-[3-[6-(difluoromethoxy)-3,4-dihydro-2H-1,4-benzoxazin-7-yl]-1-[2-[4-(morpholinomethyl)-1-piperidyl]-2-oxo-ethyl]pyrazol-4-yl]pyrazolo[1,5-a]pyrimidine-3-carboxamide], for which the IC50 in assay [1] (Homo sapiens, BEAS-2B) was determined as 45 nM. For the same compound, the figures for the Ki in assay [2] and in assay [3] were 0.51 nM and 0.34 nM, respectively.

With `C[C@H]1CNc2cc(OC(F)F)c(-c3nn(CC(=O)N4CCC(CN5CCOCC5)CC4)cc3NC(=O)c3cnn4cccnc34)cc2S1` [Example 45, N-[1-[2-[4-(morpholinomethyl)-1-piperidyl]-2-oxo-ethyl]-3-[(2S)-6-(difluoromethoxy)-2-methyl-3,4-dihydro-2H-1,4-benzothiazin-7-yl]pyrazol-4-yl]pyrazolo[1,5-a]pyrimidine-3-carboxamide], the 50% inhibitory concentration (IC50) in assay [1] (Homo sapiens, BEAS-2B) was found to be 29 nM. The inhibition constant (Ki) in assay [2] was found to be 0.24 nM; in assay [3], 0.22 nM.

For `C[C@@H]1CNc2cc(OC(F)F)c(-c3nn(CC(=O)N4CCC(CN5CCOCC5)CC4)cc3NC(=O)c3cnn4cccnc34)cc2S1` [Example 46, N-[1-[2-[4-(morpholinomethyl)-1-piperidyl]-2-oxo-ethyl]-3-[(2R)-6-(difluoromethoxy)-2-methyl-3,4-dihydro-2H-1,4-benzothiazin-7-yl]pyrazol-4-yl]pyrazolo[1,5-a]pyrimidine-3-carboxamide], the 50% inhibitory concentration (IC50) in assay [1] (Homo sapiens, BEAS-2B) was 31 nM. Also, the Ki in assay [2] turned out to be 0.31 nM; in assay [3], 0.25 nM.

Consider `O=C(Nc1cn(CC(=O)N2CCC(N3CCOCC3)CC2)nc1-c1cc2c(cc1OC(F)F)NCCO2)c1cnn2cccnc12` [Example 47, N-[3-[6-(difluoromethoxy)-3,4-dihydro-2H-1,4-benzoxazin-7-yl]-1-[2-(4-morpholino-1-piperidyl)-2-oxo-ethyl]pyrazol-4-yl]pyrazolo[1,5-a]pyrimidine-3-carboxamide], for which the IC50 in assay [1] (Homo sapiens, BEAS-2B) worked out at 106 nM. Besides, the Ki was found to be 0.45 nM in assay [2] and 0.31 nM in assay [3].

For `O=C(Nc1cn(CC(=O)N2CCC(O)CC2)nc1-c1cc2c(cc1OC(F)F)NCCO2)c1cnn2cccnc12` [Example 48, N-[3-[6-(difluoromethoxy)-3,4-dihydro-2H-1,4-benzoxazin-7-yl]-1-[2-(4-hydroxy-1-piperidyl)-2-oxo-ethyl]pyrazol-4-yl]pyrazolo[1,5-a]pyrimidine-3-carboxamide], the IC50 in assay [1] (Homo sapiens, BEAS-2B) is more than 1000 nM. The inhibitory constant (Ki) in assay [2] turned out to be 0.51 nM; in assay [3], 0.3 nM.

Consider `O=C(Nc1cn(CC(=O)N2CC=CCC2)nc1-c1cc2c(cc1OC(F)F)NCCO2)c1cnn2cccnc12` [Example 49, N-[3-[6-(difluoromethoxy)-3,4-dihydro-2H-1,4-benzoxazin-7-yl]-1-[2-(3,6-dihydro-2H-pyridin-1-yl)-2-oxo-ethyl]pyrazol-4-yl]pyrazolo[1,5-a]pyrimidine-3-carboxamide], for which, in assay [1] (Homo sapiens, BEAS-2B), the half-maximal inhibitory concentration (IC50) came to 19 nM. The Ki in assay [2] was 0.29 nM; in assay [3] it was 0.23 nM.

As to `O=C(Nc1cn(CC(=O)N2CC=CCC2)nc1-c1cc2c(cc1OC(F)F)NCCS2)c1cnn2cccnc12` [Example 50, N-[3-[6-(difluoromethoxy)-3,4-dihydro-2H-1,4-benzothiazin-7-yl]-1-[2-(3,6-dihydro-2H-pyridin-1-yl)-2-oxo-ethyl]pyrazol-4-yl]pyrazolo[1,5-a]pyrimidine-3-carboxamide], the IC50 in assay [1] (Homo sapiens, BEAS-2B) came out at 10 nM. Further, the inhibitory constant (Ki) came to 0.1 nM in assay [2] and 0.11 nM in assay [3].

As for `O=C(Nc1cn(CC(=O)N2CCCCC2)nc1-c1cc2c(cc1OC(F)F)NCCS2)c1cnn2cccnc12` [Example 51, N-[3-[6-(difluoromethoxy)-3,4-dihydro-2H-1,4-benzothiazin-7-yl]-1-[2-oxo-2-(1-piperidyl)ethyl]pyrazol-4-yl]pyrazolo[1,5-a]pyrimidine-3-carboxamide], in assay [1] (Homo sapiens, BEAS-2B), the concentration for half-maximal inhibition (IC50) was found to be 11 nM. The inhibitory constant (Ki) in assay [2] was 0.1 nM; in assay [3] it was 0.13 nM.

Take `O=C(Nc1cn(CC(=O)N2CCC(O)CC2)nc1-c1cc2c(cc1OC(F)F)NCCS2)c1cnn2cccnc12` [Example 52, N-[3-[6-(difluoromethoxy)-3,4-dihydro-2H-1,4-benzothiazin-7-yl]-1-[2-(4-hydroxy-1-piperidyl)-2-oxo-ethyl]pyrazol-4-yl]pyrazolo[1,5-a]pyrimidine-3-carboxamide]: the IC50 in assay [1] (Homo sapiens, BEAS-2B) worked out at 285 nM. For the same compound, the results for the inhibition constant (Ki) in assay [2] and in assay [3] were 0.14 nM and 0.16 nM, respectively.

By IC50 is commonly meant the concentration that inhibits the measured activity by half. What is called Ki is the equilibrium dissociation constant of an inhibitor or competing ligand from its target.
